Experimental data as given in article PMC6120666 (The EMBO Journal, 2018).

What was measured:
Experiment in all cases: Drug affinity chromatography with c-ponatinib and LC-MS/MS (ponatinib interactome)
Type in all cases: binding
[1] = target: T1, proteins of U2OS cell lysate (Homo sapiens, UniProt P11142); conditions: HSPA8, Heat shock cognate 71 kDa protein
T1 construct: Proteins enriched by c-ponatinib from U2OS cell lysate; endogenous in cells; host or cells: U2OS cell lysate
Procedure, shortened: (§1)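 U2OS cell lysate in NP-40 lysis buffer (2 mg protein per pulldown) was incubated with amine-derivatized NHS beads for 2 h at 4 °C. Bound proteins were washed, eluted with 100 mM formic acid, reduced, alkylated and trypsin-digested, then identified by nano-UPLC–MS/MS on Orbitrap instruments with a 60 min gradient.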

[2] = target: T2, proteins of U2OS cell lysate (Homo sapiens, UniProt P55072); conditions: VCP, Transitional endoplasmic reticulum ATPase
T2 construct: Proteins enriched by c-ponatinib from U2OS cell lysate; endogenous in cells; host or cells: U2OS cell lysate
Procedure, shortened: as §1

[3] = target: T3, proteins of U2OS cell lysate (Homo sapiens, UniProt P08195); conditions: SLC3A2, 4F2 cell-surface antigen heavy chain
T3 construct: Proteins enriched by c-ponatinib from U2OS cell lysate; endogenous in cells; host or cells: U2OS cell lysate
Procedure, shortened: as §1

[4] = target: T4, proteins of U2OS cell lysate (Homo sapiens, UniProt P07355); conditions: ANXA2;ANXA2P2, Annexin A2
T4 construct: Proteins enriched by c-ponatinib from U2OS cell lysate; endogenous in cells; host or cells: U2OS cell lysate
Procedure, shortened: as §1

[5] = target: T5, proteins of U2OS cell lysate (Homo sapiens, UniProt P62820); conditions: RAB1A;RAB1B, Ras-related protein Rab-1A
T5 construct: Proteins enriched by c-ponatinib from U2OS cell lysate; endogenous in cells; host or cells: U2OS cell lysate
Procedure, shortened: as §1

[6] = target: T6, proteins of U2OS cell lysate (Homo sapiens, UniProt Q16854); conditions: DGUOK, Deoxyguanosine kinase, mitochondrial
T6 construct: Proteins enriched by c-ponatinib from U2OS cell lysate; endogenous in cells; host or cells: U2OS cell lysate
Procedure, shortened: as §1

[7] = target: T7, proteins of U2OS cell lysate (Homo sapiens, UniProt P60953); conditions: CDC42, Cell division control protein 42 homolog
T7 construct: Proteins enriched by c-ponatinib from U2OS cell lysate; endogenous in cells; host or cells: U2OS cell lysate
Procedure, shortened: as §1

[8] = target: T8, proteins of U2OS cell lysate (Homo sapiens, UniProt P42684); conditions: ABL2, Abelson tyrosine-protein kinase 2
T8 construct: Proteins enriched by c-ponatinib from U2OS cell lysate; endogenous in cells; host or cells: U2OS cell lysate
Procedure, shortened: as §1

[9] = target: T9, proteins of U2OS cell lysate (Homo sapiens, UniProt O14818); conditions: PSMA7;PSMA8, Proteasome subunit alpha type-7
T9 construct: Proteins enriched by c-ponatinib from U2OS cell lysate; endogenous in cells; host or cells: U2OS cell lysate
Procedure, shortened: as §1

[10] = target: T10, proteins of U2OS cell lysate (Homo sapiens, UniProt A1L0T0); conditions: ILVBL, Acetolactate synthase-like protein
T10 construct: Proteins enriched by c-ponatinib from U2OS cell lysate; endogenous in cells; host or cells: U2OS cell lysate
Procedure, shortened: as §1

[11] = target: T11, proteins of U2OS cell lysate (Homo sapiens, UniProt P50991); conditions: CCT4, T-complex protein 1 subunit delta
T11 construct: Proteins enriched by c-ponatinib from U2OS cell lysate; endogenous in cells; host or cells: U2OS cell lysate
Procedure, shortened: as §1

[12] = target: T12, proteins of U2OS cell lysate (Homo sapiens, UniProt P00387); conditions: CYB5R3, NADH-cytochrome b5 reductase 3
T12 construct: Proteins enriched by c-ponatinib from U2OS cell lysate; endogenous in cells; host or cells: U2OS cell lysate
Procedure, shortened: as §1

[13] = target: T13, proteins of U2OS cell lysate (Homo sapiens, UniProt Q6PHR2); conditions: ULK3, Serine/threonine-protein kinase ULK3
T13 construct: Proteins enriched by c-ponatinib from U2OS cell lysate; endogenous in cells; host or cells: U2OS cell lysate
Procedure, shortened: as §1

[14] = target: T14, proteins of U2OS cell lysate (Homo sapiens, UniProt P09496); conditions: CLTA, Clathrin light chain A
T14 construct: Proteins enriched by c-ponatinib from U2OS cell lysate; endogenous in cells; host or cells: U2OS cell lysate
Procedure, shortened: as §1

[15] = target: T15, proteins of U2OS cell lysate (Homo sapiens, UniProt P48047); conditions: ATP5O, ATP synthase subunit O, mitochondrial
T15 construct: Proteins enriched by c-ponatinib from U2OS cell lysate; endogenous in cells; host or cells: U2OS cell lysate
Procedure, shortened: as §1

[16] = target: T16, proteins of U2OS cell lysate (Homo sapiens, UniProt Q13428); conditions: TCOF1, Treacle protein
T16 construct: Proteins enriched by c-ponatinib from U2OS cell lysate; endogenous in cells; host or cells: U2OS cell lysate
Procedure, shortened: as §1

[17] = target: T17, proteins of U2OS cell lysate (Homo sapiens, UniProt P62851); conditions: RPS25, 40S ribosomal protein S25
T17 construct: Proteins enriched by c-ponatinib from U2OS cell lysate; endogenous in cells; host or cells: U2OS cell lysate
Procedure, shortened: as §1

[18] = target: T18, proteins of U2OS cell lysate (Homo sapiens, UniProt P62258); conditions: YWHAE, 14-3-3 protein epsilon
T18 construct: Proteins enriched by c-ponatinib from U2OS cell lysate; endogenous in cells; host or cells: U2OS cell lysate
Procedure, shortened: as §1

[19] = target: T19, proteins of U2OS cell lysate (Homo sapiens, UniProt Q9HAV4); conditions: captured protein XPO5, Rank 207
T19 construct: Proteins enriched by c-ponatinib from U2OS cell lysate; endogenous in cells; host or cells: U2OS cell lysate
Procedure, shortened: as §1

T14 sequence (P09496 whole entry): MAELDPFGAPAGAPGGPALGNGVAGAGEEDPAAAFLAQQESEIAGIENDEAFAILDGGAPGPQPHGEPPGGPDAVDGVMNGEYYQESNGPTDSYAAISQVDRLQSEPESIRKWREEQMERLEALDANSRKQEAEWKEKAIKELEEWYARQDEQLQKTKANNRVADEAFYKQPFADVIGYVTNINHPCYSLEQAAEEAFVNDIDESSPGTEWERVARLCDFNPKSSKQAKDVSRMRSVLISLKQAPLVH
T5 sequence (P62820 whole entry): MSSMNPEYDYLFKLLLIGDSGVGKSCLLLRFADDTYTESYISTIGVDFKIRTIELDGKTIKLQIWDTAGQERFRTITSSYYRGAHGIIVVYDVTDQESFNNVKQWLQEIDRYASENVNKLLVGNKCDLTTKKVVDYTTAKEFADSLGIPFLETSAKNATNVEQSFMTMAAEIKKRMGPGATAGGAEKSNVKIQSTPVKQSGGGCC
T9 sequence (O14818 whole entry): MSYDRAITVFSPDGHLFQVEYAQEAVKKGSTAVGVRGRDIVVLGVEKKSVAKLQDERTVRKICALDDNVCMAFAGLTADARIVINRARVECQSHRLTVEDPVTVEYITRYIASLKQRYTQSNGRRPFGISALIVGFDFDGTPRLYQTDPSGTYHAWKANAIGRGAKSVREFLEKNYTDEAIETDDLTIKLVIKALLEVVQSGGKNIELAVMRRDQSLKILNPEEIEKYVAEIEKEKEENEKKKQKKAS
T4 sequence (P07355 whole entry): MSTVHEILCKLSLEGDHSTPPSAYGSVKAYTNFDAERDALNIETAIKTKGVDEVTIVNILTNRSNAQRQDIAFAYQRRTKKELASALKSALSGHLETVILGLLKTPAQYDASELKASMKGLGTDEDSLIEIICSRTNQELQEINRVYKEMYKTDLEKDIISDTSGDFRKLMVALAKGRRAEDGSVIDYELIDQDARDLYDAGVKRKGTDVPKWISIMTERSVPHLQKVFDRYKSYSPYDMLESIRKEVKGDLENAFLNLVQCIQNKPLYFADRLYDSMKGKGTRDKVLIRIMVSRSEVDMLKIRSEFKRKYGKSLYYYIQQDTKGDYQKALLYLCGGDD
T11 sequence (P50991 whole entry): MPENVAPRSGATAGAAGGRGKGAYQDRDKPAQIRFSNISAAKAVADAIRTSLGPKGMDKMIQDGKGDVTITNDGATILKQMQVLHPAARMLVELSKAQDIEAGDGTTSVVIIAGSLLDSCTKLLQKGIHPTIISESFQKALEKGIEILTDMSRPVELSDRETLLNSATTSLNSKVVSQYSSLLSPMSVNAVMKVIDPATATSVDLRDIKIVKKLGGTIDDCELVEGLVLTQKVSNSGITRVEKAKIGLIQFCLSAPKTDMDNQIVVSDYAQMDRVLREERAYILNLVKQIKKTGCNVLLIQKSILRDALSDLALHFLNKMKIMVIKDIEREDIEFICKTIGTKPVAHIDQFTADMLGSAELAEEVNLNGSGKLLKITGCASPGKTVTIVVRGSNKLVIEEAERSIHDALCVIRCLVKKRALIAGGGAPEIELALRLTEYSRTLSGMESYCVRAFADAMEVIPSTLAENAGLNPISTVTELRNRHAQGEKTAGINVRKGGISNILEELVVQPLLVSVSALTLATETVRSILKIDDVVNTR
T15 sequence (P48047 24-213): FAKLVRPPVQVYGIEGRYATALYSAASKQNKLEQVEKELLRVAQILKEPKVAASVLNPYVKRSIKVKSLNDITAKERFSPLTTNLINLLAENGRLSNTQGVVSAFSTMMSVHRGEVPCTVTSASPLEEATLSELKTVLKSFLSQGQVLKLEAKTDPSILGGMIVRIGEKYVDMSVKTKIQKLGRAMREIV
T10 sequence (A1L0T0 whole entry): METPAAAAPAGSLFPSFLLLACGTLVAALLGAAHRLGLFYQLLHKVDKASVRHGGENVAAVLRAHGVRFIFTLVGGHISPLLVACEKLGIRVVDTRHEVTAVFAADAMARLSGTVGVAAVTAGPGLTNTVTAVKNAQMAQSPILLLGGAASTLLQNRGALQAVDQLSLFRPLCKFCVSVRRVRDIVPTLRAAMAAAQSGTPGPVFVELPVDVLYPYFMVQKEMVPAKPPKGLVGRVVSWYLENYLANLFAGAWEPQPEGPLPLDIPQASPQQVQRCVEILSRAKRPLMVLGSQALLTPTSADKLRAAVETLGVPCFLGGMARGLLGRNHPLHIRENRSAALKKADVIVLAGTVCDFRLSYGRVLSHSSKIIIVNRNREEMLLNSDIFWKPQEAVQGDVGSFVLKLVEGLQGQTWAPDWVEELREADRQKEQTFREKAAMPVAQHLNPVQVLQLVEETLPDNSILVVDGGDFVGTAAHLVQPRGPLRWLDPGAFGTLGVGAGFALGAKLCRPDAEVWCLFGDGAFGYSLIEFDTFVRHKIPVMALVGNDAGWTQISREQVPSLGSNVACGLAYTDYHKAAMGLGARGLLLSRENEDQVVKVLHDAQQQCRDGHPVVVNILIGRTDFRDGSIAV
T2 sequence (P55072 whole entry): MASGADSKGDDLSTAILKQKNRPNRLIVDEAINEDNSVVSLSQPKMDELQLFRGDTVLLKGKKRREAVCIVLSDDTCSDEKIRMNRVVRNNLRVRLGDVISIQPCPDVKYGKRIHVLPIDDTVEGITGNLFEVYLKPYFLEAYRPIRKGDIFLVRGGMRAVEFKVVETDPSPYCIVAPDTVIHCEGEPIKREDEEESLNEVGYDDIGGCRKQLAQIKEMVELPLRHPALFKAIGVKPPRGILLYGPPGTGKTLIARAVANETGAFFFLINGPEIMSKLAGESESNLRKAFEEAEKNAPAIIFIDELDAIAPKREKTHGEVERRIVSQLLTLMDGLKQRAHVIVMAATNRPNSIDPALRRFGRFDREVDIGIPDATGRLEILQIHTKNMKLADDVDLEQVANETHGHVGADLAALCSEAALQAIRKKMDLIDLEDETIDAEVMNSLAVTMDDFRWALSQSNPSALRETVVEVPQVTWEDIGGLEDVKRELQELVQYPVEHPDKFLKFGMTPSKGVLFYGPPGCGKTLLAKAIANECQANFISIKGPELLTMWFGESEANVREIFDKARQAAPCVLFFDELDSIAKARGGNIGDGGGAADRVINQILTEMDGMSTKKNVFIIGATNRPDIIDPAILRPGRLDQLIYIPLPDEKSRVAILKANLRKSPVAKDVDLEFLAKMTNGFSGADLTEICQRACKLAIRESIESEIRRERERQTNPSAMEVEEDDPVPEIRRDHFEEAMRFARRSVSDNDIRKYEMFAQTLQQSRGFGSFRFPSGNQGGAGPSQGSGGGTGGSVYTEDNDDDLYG
T19 sequence (Q9HAV4 whole entry): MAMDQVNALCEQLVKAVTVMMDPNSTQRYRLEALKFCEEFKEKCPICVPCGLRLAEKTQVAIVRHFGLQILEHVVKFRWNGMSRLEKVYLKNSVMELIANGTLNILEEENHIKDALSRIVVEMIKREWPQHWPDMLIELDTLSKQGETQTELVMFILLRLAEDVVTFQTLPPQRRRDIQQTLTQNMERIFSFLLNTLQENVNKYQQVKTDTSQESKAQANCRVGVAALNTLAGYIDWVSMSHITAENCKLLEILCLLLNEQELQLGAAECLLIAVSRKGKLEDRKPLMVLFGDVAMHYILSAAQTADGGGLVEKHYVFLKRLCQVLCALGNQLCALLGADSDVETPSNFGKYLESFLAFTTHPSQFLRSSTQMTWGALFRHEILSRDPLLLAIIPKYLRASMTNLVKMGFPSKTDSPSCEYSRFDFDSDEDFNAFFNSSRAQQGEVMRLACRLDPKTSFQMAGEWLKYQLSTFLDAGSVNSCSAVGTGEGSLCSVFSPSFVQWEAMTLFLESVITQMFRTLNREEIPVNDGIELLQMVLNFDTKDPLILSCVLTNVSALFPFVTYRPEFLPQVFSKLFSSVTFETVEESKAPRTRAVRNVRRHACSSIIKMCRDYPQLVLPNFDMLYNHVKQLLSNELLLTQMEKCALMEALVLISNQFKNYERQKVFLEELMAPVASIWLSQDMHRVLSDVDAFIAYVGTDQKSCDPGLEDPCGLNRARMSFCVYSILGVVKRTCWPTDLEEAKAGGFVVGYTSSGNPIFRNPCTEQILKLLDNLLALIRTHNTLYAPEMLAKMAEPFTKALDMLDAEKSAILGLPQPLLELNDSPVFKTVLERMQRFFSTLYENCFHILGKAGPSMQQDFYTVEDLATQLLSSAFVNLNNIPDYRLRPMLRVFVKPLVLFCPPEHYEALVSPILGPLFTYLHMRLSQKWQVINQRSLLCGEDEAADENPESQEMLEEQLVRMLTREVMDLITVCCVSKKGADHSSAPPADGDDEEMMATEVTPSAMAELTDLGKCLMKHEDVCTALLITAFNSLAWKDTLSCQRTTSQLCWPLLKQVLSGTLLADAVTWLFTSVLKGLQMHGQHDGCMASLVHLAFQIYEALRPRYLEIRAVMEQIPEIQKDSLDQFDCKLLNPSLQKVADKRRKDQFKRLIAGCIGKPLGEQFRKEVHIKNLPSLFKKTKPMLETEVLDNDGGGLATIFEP
T7 sequence (P60953 whole entry): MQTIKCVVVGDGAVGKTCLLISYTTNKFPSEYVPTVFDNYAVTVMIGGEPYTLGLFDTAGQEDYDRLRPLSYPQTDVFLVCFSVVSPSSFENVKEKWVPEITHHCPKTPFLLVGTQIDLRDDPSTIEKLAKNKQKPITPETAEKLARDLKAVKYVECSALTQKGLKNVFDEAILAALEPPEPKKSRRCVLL
T6 sequence (Q16854 40-277): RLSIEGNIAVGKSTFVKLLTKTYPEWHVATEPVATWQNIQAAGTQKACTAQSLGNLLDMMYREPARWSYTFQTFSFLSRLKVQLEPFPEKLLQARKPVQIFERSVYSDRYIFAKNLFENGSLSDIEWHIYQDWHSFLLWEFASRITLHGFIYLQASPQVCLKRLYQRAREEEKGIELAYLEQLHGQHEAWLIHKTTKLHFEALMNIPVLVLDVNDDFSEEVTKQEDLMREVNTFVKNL

| SMILES | Average LFQ PON_WT [1] | Average LFQ PON_WT [2] | Average LFQ PON_WT [3] | Average LFQ PON_WT [4] | Average LFQ PON_WT [5] | Average LFQ PON_WT [6] | Average LFQ PON_WT [7] | Average LFQ PON_WT [8] | Average LFQ PON_WT [9] | Average LFQ PON_WT [10] | Average LFQ PON_WT [11] | Average LFQ PON_WT [12] | Average LFQ PON_WT [13] | Average LFQ PON_WT [14] | Average LFQ PON_WT [15] | Average LFQ PON_WT [16] | Average LFQ PON_WT [17] | Average LFQ PON_WT [18] | Average LFQ intensity [19] |
| --- | --- | --- | --- | --- | --- | --- | --- | --- | --- | --- | --- | --- | --- | --- | --- | --- | --- | --- | --- |
| Cc1ccc(C(=O)Nc2ccc(CN3CCN(C)CC3)c(C(F)(F)F)c2)cc1C#Cc1cnc2cccnn12 [PON] | 27.1657 | 23.9947 | 18.7801 | 23.7363 | 23.3468 | 23.2666 | 20.531 | 26.1742 | 22.0977 | 23.3851 | 23.8741 | 20.8184 | 24.6179 | 24.9334 | 24.0207 | 20.5654 | 23.6854 | 21.3893 | – |
| Cc1ccc(C(=O)Nc2ccc(CN3CCN(CCCN)CC3)c(C(F)(F)F)c2)cc1C#Cc1cnc2cccnn12 [c-ponatinib, reference compound] | – | – | – | – | – | – | – | – | – | – | – | – | – | – | – | – | – | – | 21.7615 |
